# Numbered stars: 1 amine (or outer) side, 2 acyl side, 3 side chain; on linkers, the order of the positions; unused ones are H or OH. Bridge positions count the residues as written; N and C are the ends. Square brackets hold non-standard residues; d marks the D form. Peptide text beside a SMILES is read from it. * marks the point of attachment. C20 diacid = O=C(O)CCCCCCCCCCCCCCCCCCC(=O)*; γGlu = O=C(O)[C@H](CCC(=O)[*:2])N[*:1]; Hyp = O=C(O)[C@@H]1C[C@@H](O)CN1; NMeI = CC[C@H](C)[C@H](NC)C(=O)O; Aad = N[C@@H](CCCC(=O)O)C(=O)O; Cit = NC(=O)NCCC[C@H](N)C(=O)O; Sar = CNCC(=O)O
# Columns and labels:
# hAMY3 receptor = target: T1, hAMY3 receptor (Homo sapiens, UniProt O60896+P30988); assay: cAMP assay for in vitro receptor activation, hAMY3-R; format: cell-based; conditions: cAMP assay, hAMY3 receptor; read-out: hAMY3R EC50
# T1 sequence (P30988 25-474): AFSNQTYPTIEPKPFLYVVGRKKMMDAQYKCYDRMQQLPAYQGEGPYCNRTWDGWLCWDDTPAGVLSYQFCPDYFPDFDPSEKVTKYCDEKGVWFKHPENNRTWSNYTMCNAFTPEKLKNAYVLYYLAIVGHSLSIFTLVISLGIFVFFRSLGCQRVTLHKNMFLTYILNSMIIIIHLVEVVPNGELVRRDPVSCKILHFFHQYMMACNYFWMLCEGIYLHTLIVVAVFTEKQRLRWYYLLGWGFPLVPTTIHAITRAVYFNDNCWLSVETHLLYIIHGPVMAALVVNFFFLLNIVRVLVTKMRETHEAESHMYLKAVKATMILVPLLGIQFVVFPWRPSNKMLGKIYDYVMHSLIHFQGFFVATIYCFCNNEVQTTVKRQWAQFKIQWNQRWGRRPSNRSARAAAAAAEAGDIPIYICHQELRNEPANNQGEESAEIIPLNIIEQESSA
# T1 sequence (O60896 24-148 partner): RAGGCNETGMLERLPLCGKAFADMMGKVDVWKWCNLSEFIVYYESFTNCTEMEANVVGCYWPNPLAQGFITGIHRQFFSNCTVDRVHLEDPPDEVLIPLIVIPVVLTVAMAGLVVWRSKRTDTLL
# Method in brief: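 Monoclonal cell line stably overexpressing hAMY3 receptor, plated in DPBS with 0.05% casein and 0.5 mM IBMX, was stimulated with graded compound doses for 30 min at room temperature. cAMP accumulation was read by time-resolved FRET one hour after adding detection reagents.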
# hAM1 receptor = hAM1 receptor (Homo sapiens, UniProt O60895+Q16602); assay: cAMP assay for in vitro receptor activation, hAM1-R; format: cell-based; conditions: cAMP assay, hAM1 receptor; read-out: hAM1R EC50
# Method in brief: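 Read-out is intracellular cAMP as a measure of receptor activation. Cells stably overexpressing hAM1 were subcloned to a monoclonal line, then thawed and seeded at 8000 cells/well in DPBS with 0.05% casein and the phosphodiesterase inhibitor IBMX at 0.5 mM.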
# Sequence of hAM1 receptor (Q16602 23-461): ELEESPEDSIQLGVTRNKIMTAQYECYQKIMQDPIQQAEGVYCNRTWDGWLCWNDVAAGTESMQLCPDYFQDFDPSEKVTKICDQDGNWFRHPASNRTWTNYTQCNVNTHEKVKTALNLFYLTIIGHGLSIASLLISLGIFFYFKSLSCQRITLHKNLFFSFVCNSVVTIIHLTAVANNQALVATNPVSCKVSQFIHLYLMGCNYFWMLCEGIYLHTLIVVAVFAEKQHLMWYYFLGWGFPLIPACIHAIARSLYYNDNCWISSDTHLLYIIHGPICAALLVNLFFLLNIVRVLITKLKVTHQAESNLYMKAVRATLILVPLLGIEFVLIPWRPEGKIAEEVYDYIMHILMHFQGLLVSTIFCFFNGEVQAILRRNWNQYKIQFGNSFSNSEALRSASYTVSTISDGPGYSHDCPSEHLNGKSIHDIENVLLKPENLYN
# Sequence of hAM1 receptor (O60895 43-175 partner): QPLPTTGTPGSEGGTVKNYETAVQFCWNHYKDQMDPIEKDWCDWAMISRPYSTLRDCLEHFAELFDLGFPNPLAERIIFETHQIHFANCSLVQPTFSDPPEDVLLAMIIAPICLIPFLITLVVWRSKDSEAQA
EC50 (hAMY3 receptor) [nM],EC50 (hAM1 receptor) [nM],Structure (SMILES)
0.041,> 5000,CC[C@H](C)[C@H](NC(=O)[C@H](CCC(N)=O)NC(=O)[C@H](CCC(=O)O)NC(=O)[C@H](C)NC(=O)[C@H](CC(C)C)NC(=O)[C@H](CCCNC(N)=O)NC(=O)[C@H](CCC(N)=O)NC(=O)[C@@H](NC(=O)[C@@H](NC(=O)[C@@H]1CSSC[C@H](NC(=O)[C@H](CCCCN)NC(=O)CC[C@H](NC(=O)CCCCCCCCCCCCCCCCCCC(=O)O)C(=O)O)C(=O)N[C@@H](CC(N)=O)C(=O)N[C@@H]([C@@H](C)O)C(=O)N[C@@H](C)C(=O)N[C@@H]([C@@H](C)O)C(=O)N1)[C@@H](C)O)C(C)C)C(=O)N[C@@H](C)C(=O)N[C@@H](CCC(N)=O)C(=O)N[C@@H](Cc1ccccc1)C(=O)N[C@H](C(=O)N[C@@H](CC(=O)O)C(=O)N[C@@H](CCCCN)C(=O)N[C@@H](CC(=O)O)C(=O)N[C@@H](CCCCN)C(=O)N[C@@H](CC(=O)O)C(=O)N[C@@H](CC(N)=O)C(=O)N[C@H](C(=O)N[C@@H](C)C(=O)N1CCC[C@H]1C(=O)N1CCC[C@H]1C(=O)N[C@H](C(=O)N[C@@H](CC(N)=O)C(=O)N[C@H](C(=O)NCC(=O)N[C@@H](CO)C(=O)N[C@@H](CC(N)=O)C(=O)NCC(=O)N1C[C@H](O)C[C@H]1C(N)=O)C(C)C)[C@@H](C)O)C(C)C)[C@@H](C)O [compound 153] ({C20 diacid-γGlu}-KCNTATCTVQ[Cit]LAEQIAQFTDKDKDNVAPPTNVGSNG[Hyp]-NH2; disulfide 2-7)
0.014,> 5000,CC[C@H](C)[C@@H](C(=O)N[C@@H](CC(C)C)C(=O)N[C@@H](CO)C(=O)N[C@@H](CO)C(=O)N[C@H](C(=O)N[C@@H](CCC(=O)O)C(=O)N[C@H](C(=O)NCC(=O)N[C@@H](CO)C(=O)N[C@@H](CC(N)=O)C(=O)N[C@H](C(=O)N1C[C@H](O)C[C@H]1C(N)=O)[C@@H](C)O)C(C)C)[C@@H](C)O)N(C)C(=O)[C@H](C)NC(=O)CN(C)C(=O)[C@H](Cc1ccccc1)NC(=O)[C@H](CO)NC(=O)[C@H](CO)NC(=O)[C@H](CCCNC(=N)N)NC(=O)[C@H](CCC(N)=O)NC(=O)[C@H](CC(C)C)NC(=O)[C@H](Cc1ccccc1)NC(=O)[C@H](CCCC(=O)O)NC(=O)[C@H](C)NC(=O)[C@H](CC(C)C)NC(=O)[C@H](CCCNC(=N)N)NC(=O)[C@H](CCC(=O)O)NC(=O)[C@@H](NC(=O)[C@H](C)NC(=O)[C@@H]1CSSC[C@H](NC(=O)[C@H](CCCNC(=N)N)NC(=O)CC[C@H](NC(=O)CCCCCCCCCCCCCCCCCCC(=O)O)C(=O)O)C(=O)NCC(=O)N[C@@H]([C@@H](C)O)C(=O)N[C@@H](C)C(=O)N[C@@H]([C@@H](C)O)C(=O)N1)[C@@H](C)O [compound 76] ({C20 diacid-γGlu}-RCGTATCATERLA[Aad]FLQRSSF[Sar]A[NMeI]LSSTEVGSNT[Hyp]-NH2; disulfide 2-7)
0.019,> 5000,CC[C@H](C)[C@H](NC(=O)[C@H](CCC(N)=O)NC(=O)[C@H](CCC(=O)O)NC(=O)[C@H](C)NC(=O)[C@H](CC(C)C)NC(=O)[C@H](CCCNC(=N)N)NC(=O)[C@H](CCC(N)=O)NC(=O)[C@@H](NC(=O)[C@@H](NC(=O)[C@@H]1CSSC[C@H](NC(=O)[C@H](CCCCN)NC(=O)CC[C@H](NC(=O)CCCCCCCCCCCCCCCCCCC(=O)O)C(=O)O)C(=O)N[C@@H](CC(N)=O)C(=O)N[C@@H]([C@@H](C)O)C(=O)N[C@@H](C)C(=O)N[C@@H]([C@@H](C)O)C(=O)N1)[C@@H](C)O)C(C)C)C(=O)N[C@@H](Cc1ccc(O)cc1)C(=O)N[C@@H](CCC(N)=O)C(=O)N[C@@H](Cc1ccccc1)C(=O)N[C@H](C(=O)N[C@@H](CC(=O)O)C(=O)N[C@@H](CCCCN)C(=O)N[C@@H](CC(=O)O)C(=O)N[C@@H](CCCCN)C(=O)N[C@@H](C)C(=O)N[C@@H](CC(N)=O)C(=O)N[C@H](C(=O)N[C@@H](C)C(=O)N1CCC[C@H]1C(=O)N1CCC[C@H]1C(=O)N[C@H](C(=O)N[C@@H](CC(N)=O)C(=O)N[C@H](C(=O)NCC(=O)N[C@@H](CO)C(=O)N[C@@H](CC(N)=O)C(=O)NCC(=O)N1C[C@H](O)C[C@H]1C(N)=O)C(C)C)[C@@H](C)O)C(C)C)[C@@H](C)O [compound 108] ({C20 diacid-γGlu}-KCNTATCTVQRLAEQIYQFTDKDKANVAPPTNVGSNG[Hyp]-NH2; disulfide 2-7)
0.006,> 5000,CC[C@H](C)[C@H](NC(=O)[C@H](CCC(N)=O)NC(=O)[C@H](CC(=O)O)NC(=O)[C@H](C)NC(=O)[C@H](CC(C)C)NC(=O)[C@H](CCCNC(=N)N)NC(=O)[C@H](C)NC(=O)[C@@H](NC(=O)[C@@H](NC(=O)[C@@H]1CSSC[C@H](NC(=O)[C@@H](N)CCCCN)C(=O)N[C@@H](CC(N)=O)C(=O)N[C@@H]([C@@H](C)O)C(=O)N[C@@H](CO)C(=O)N[C@@H]([C@@H](C)O)C(=O)N1)[C@@H](C)O)C(C)C)C(=O)N[C@H](C(=O)N[C@@H](CCC(N)=O)C(=O)N[C@@H](Cc1ccccc1)C(=O)N[C@@H](CO)C(=O)N[C@@H](CC(N)=O)C(=O)N[C@@H](CCCCN)C(=O)N[C@@H](CC(=O)O)C(=O)N[C@@H](CCCCN)C(=O)N[C@@H](C)C(=O)N[C@@H](CCC(N)=O)C(=O)N[C@H](C(=O)N[C@@H](CO)C(=O)N1CCC[C@H]1C(=O)N1CCC[C@H]1C(=O)N[C@H](C(=O)N[C@@H](CCC(=O)O)C(=O)N[C@H](C(=O)NCC(=O)N1CCC[C@H]1C(=O)N[C@@H](CC(N)=O)C(=O)N[C@@H](CO)C(=O)N1C[C@H](O)C[C@H]1C(N)=O)C(C)C)[C@@H](C)O)C(C)C)[C@@H](C)O [compound 8] (H-KCNTSTCTVARLADQITQFSNKDKAQVSPPTEVGPNS[Hyp]-NH2; disulfide 2-7; N-terminus assumed)
0.01,> 5000,CC[C@H](C)[C@H](NC(=O)[C@H](CCC(N)=O)NC(=O)[C@H](Cc1c[nH]cn1)NC(=O)[C@H](C)NC(=O)[C@H](CC(C)C)NC(=O)[C@H](CCCNC(=N)N)NC(=O)[C@H](C)NC(=O)[C@@H](NC(=O)[C@@H](NC(=O)[C@@H]1CSSC[C@H](NC(=O)[C@H](CCCCN)NC(=O)CC[C@H](NC(=O)CCCCCCCCCCCCCCCCCCC(=O)O)C(=O)O)C(=O)N[C@@H](CC(N)=O)C(=O)N[C@@H]([C@@H](C)O)C(=O)N[C@@H](C)C(=O)N[C@@H]([C@@H](C)O)C(=O)N1)[C@@H](C)O)C(C)C)C(=O)N[C@@H](Cc1ccc(O)cc1)C(=O)N[C@@H](CCC(N)=O)C(=O)N[C@@H](Cc1ccccc1)C(=O)N[C@H](C(=O)N[C@@H](CC(=O)O)C(=O)N[C@@H](CCCCN)C(=O)N[C@@H](CC(=O)O)C(=O)N[C@@H](CCCCN)C(=O)N[C@@H](CC(=O)O)C(=O)N[C@@H](CC(N)=O)C(=O)N[C@H](C(=O)N[C@@H](C)C(=O)N1CCC[C@H]1C(=O)N1CCC[C@H]1C(=O)N[C@H](C(=O)N[C@@H](CC(N)=O)C(=O)N[C@H](C(=O)NCC(=O)N[C@@H](CO)C(=O)N[C@@H](CC(N)=O)C(=O)NCC(=O)N1C[C@H](O)C[C@H]1C(N)=O)C(C)C)[C@@H](C)O)C(C)C)[C@@H](C)O [compound 37] ({C20 diacid-γGlu}-KCNTATCTVARLAHQIYQFTDKDKDNVAPPTNVGSNG[Hyp]-NH2; disulfide 2-7)
0.009,> 5000,CC[C@H](C)[C@H](NC(=O)[C@H](CCC(N)=O)NC(=O)[C@H](Cc1c[nH]cn1)NC(=O)[C@H](C)NC(=O)[C@H](CC(C)C)NC(=O)[C@H](CCCNC(=N)N)NC(=O)[C@H](CCC(N)=O)NC(=O)[C@@H](NC(=O)[C@@H](NC(=O)[C@@H]1CSSC[C@H](NC(=O)[C@H](CCCCN)NC(=O)CC[C@H](NC(=O)CCCCCCCCCCCCCCCCCCC(=O)O)C(=O)O)C(=O)N[C@@H](CC(N)=O)C(=O)N[C@@H]([C@@H](C)O)C(=O)N[C@@H](C)C(=O)N[C@@H]([C@@H](C)O)C(=O)N1)[C@@H](C)O)C(C)C)C(=O)N[C@@H](CCC(N)=O)C(=O)N[C@@H](CCC(N)=O)C(=O)N[C@@H](Cc1ccccc1)C(=O)N[C@H](C(=O)N[C@@H](CC(=O)O)C(=O)N[C@@H](CCCCN)C(=O)N[C@@H](CC(=O)O)C(=O)N[C@@H](CCCCN)C(=O)N[C@@H](CC(=O)O)C(=O)N[C@@H](CC(N)=O)C(=O)N[C@H](C(=O)N[C@@H](C)C(=O)N1CCC[C@H]1C(=O)N1CCC[C@H]1C(=O)N[C@H](C(=O)N[C@@H](CC(N)=O)C(=O)N[C@H](C(=O)NCC(=O)N[C@@H](CO)C(=O)N[C@@H](CC(N)=O)C(=O)NCC(=O)N1C[C@H](O)C[C@H]1C(N)=O)C(C)C)[C@@H](C)O)C(C)C)[C@@H](C)O [compound 35] ({C20 diacid-γGlu}-KCNTATCTVQRLAHQIQQFTDKDKDNVAPPTNVGSNG[Hyp]-NH2; disulfide 2-7)

# Source: patent publication US12139520B2 (priority 2020, dated 2024)
